Data reported in patent US20060079558A1, “R-isomer of 2-{2[N-(2-indanyl)-N-phenylamino]ethyl}piperidine and other dermal anesthetics” (Bridge Pharma. Inc., priority 2004, published 2006).
Entries after “also recorded” stand apart in the source; their conditions may differ.

Assays:
[1] = Comparison studies of dermal toxicity; format: in vivo; conditions: in words
[2] = system: skin on the back of male or female guinea pigs; assay: Dermal anesthetic activity, pin-prick method after dermal application; format: in vivo; conditions: for onset of dermal anesthetic activity (onset time): comparison of enantiomers and racemate, in words; for dermal anesthetic effects (anesthetic score): score after 30 min application, FIG. 1, 10% solution of base in water/DMSO, maximum = 6
Protocol: Approximately 18-24 hours before each experiment, the skin on the back of male or female guinea pigs was shaved and depilated with a commercially available hair remover. The anesthetic action of each agent following dermal application was determined using a “pin-prick” method as described by Aberg (Acta Pharmacol Toxicol, 1972, 31: 273-286). Before and at various intervals after treatment, the area of the skin was tested for the presence or absence of a skin twitch in response to six standardized dermal probings with a pointed metal “algesimeter” at a predetermined maximum load of 10 grams. The average number of probings not producing a skin twitch response was designated as the “anesthetic score”. In this test system no response to six stimuli represents a “maximal anesthetic activity”. In the present calculations, the dermal anesthetic activity was calculated from the time of removal of the test article formulation from the skin until skin twitch responses to all but one pinprick were identified. In experiments on the dermal anesthetic activity, a single area of skin 1 inch square was marked off on the middle of the back of each animal. This area was covered by a 1 inch square, 16 layer thick gauze pad onto which was deposited 0.45 ml of a 10% solution of the test agent dissolved in a mixture of water and DMSO. The gauze pad was covered with a 1.5 inch square sheet of Saran Wrap™ which was attached to the surrounding skin with tape. The entire area was then covered by wrapping an elastic bandage around the trunk of the animal. After a predetermined duration of treatment, the coverings were removed and the skin assessed for the presence of anesthesia as described above. Dermal anesthesia tests were performed at ten-minute intervals to measure onset time and duration of dermal anesthetic activity; comparisons were made with reference compounds and vehicle. All test compounds were in the base form and dissolved in DMSO/water when tested for dermal anesthesia.

[3] = cited from earlier work

Row | Structure (SMILES) | dermal toxicity [1] | onset of dermal anesthetic activity (onset time) [2] | dermal anesthetic effects (anesthetic score) [2] | local anesthetic activity ([3]; racemate, U.S. Pat. No. 6,413,987) | tissue toxicity ([3]; racemic mixture, as described in U.S. Pat. No. 6,413,987)
1 | c1ccc(N(CC[C@H]2CCCCN2)C2Cc3ccccc3C2)cc1 [R-LAC-34, R-2-{2-[N-(2-indanyl)-N-phenylamino]ethyl}piperidine] | low dermal toxicity | shorter onset of action than both the racemate and the S-isomer; also recorded: significantly shorter; also recorded: shorter onset time than the racemic mixture or the S-isomer | 3.5 |  | 
2 | c1ccc(N(CCC2CCCCN2)C2Cc3ccccc3C2)cc1 (racemic) [RS-LAC-34, 2-{2-[N-(2-indanyl)-N-phenylamino]ethyl}piperidine] |  |  |  | active local anesthetic compound | little, if any, tissue toxicity
3 | c1ccc(N(CCC2CCCCN2)C2Cc3ccccc3C2)cc1 (stereo not shown) [S-LAC-34, reference compound] |  | longer onset of action | 2.6 |  | 
